Values of other authors, collected in patent US8242172B2, “2,2-dimethylbutyric acid oral pharmaceutical compositions” (Trustees of Boston University, priority 1998, dated 2012).
Values belong to the molecule of their own block, whether it stands above or below them.

Tests used:
ΔF508-CFTR [1] = settings: IB3-1 cells, 0.1-1 mM; primary nasal epithelia, 5 mM
CF patients = settings: human, in vivo
ΔF508-CFTR [2] = target: T1, ΔF508-CFTR (Homo sapiens, UniProt P13569, DEL508-508); parameters: primary cultures of nasal polyp epithelia from CF patients (ΔF508 homozygous or heterozygous); endogenous in cells; host or cells: primary nasal polyp epithelia from CF patients; IB3-1 CF bronchial epithelial cell line; settings: 0.1 and 2 mM, up to 7 days in culture; primary nasal polyp epithelia from CF patients or IB3-1
T1 sequence (P13569 with tags, fused parts or gaps DEL508-508): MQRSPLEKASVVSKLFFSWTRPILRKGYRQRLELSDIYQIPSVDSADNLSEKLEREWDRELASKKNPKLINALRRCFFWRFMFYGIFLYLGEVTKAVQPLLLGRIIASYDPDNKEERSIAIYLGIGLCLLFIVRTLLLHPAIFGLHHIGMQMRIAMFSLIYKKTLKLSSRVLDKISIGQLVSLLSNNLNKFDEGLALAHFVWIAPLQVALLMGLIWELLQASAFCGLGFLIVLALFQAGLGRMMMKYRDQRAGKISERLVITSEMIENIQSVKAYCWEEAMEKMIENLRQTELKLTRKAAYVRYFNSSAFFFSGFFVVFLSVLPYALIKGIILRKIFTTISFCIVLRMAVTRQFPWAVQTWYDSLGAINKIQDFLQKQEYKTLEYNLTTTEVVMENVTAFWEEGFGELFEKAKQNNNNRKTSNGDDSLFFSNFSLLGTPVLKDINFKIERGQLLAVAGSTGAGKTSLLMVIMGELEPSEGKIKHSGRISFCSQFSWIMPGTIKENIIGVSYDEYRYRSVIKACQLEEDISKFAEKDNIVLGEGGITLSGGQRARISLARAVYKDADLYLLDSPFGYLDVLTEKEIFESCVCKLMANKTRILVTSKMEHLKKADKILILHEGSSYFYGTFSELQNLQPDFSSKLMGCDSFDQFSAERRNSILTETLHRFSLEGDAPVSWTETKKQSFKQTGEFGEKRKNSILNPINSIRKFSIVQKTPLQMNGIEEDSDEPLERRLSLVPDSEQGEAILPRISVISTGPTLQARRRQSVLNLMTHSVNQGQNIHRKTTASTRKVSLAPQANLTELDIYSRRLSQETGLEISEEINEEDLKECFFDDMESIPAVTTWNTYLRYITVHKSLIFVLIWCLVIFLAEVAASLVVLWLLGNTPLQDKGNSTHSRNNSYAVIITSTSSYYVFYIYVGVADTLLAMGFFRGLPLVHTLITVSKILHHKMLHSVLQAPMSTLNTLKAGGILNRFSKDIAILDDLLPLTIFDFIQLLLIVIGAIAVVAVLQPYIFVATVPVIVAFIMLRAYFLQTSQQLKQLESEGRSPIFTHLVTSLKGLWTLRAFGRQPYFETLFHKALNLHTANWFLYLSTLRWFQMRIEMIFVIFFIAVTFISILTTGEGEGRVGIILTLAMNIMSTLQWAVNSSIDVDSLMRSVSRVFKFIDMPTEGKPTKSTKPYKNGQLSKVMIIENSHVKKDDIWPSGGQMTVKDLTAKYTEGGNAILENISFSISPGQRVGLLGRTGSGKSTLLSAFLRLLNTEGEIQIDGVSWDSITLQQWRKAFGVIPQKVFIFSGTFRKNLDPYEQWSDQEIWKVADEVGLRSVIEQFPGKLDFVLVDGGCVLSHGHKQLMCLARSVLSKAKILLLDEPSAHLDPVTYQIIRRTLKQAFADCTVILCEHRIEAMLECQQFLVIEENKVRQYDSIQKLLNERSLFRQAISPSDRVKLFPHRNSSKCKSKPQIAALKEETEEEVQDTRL

ΔF508-CFTR [3] = target: T1, ΔF508-CFTR; parameters: primary cultures of nasal polyp epithelia from CF patients (ΔF508 homozygous or heterozygous); endogenous in cells; host or cells: primary nasal polyp epithelia from CF patients; IB3-1 CF bronchial epithelial cell line; settings: IB3-1 cells, 2.5 mM
ΔF508-CFTR [4] = settings: 5 mM, 24 hours, C-127 cells
ΔF508-CFTR [5] = target: T1, ΔF508-CFTR; settings: up to 300 mM
IB3-1 cells = settings: equimolar concentrations (1-2 mM)
ΔF508-CFTR [6] = target: T1, ΔF508-CFTR; settings: 1 M or 10%

Molecule: O=C(O)CCCc1ccccc1 [4PBA, 4-phenylbutyrate]
- higher molecular mass forms of CFTR (immunoblot) (ΔF508-CFTR [1]): appearance of higher molecular mass forms of CFTR
- clinical tolerability (CF patients): not well tolerated
- forskolin-activated chloride secretion (ΔF508-CFTR [2]): restoration of forskolin-activated chloride secretion
- protein kinase A-activated, linear, 10 pS chloride channels at plasma membrane (ΔF508-CFTR [3]): chloride channels appeared at the plasma membrane

- ~180-kD mature glycosylated species of CFTR (ΔF508-CFTR [4]): not observed
Molecule: CCCC(=O)O [butyrate, butyric acid]
- ΔF508-CFTR mRNA by Northern analysis (ΔF508-CFTR [4]): massive increase in ΔF508-CFTR mRNA
- cAMP-stimulation indicative of chloride ion transport (ΔF508-CFTR [5]): no increases in cAMP-stimulation was observed
- cell morphology and growth rate (IB3-1 cells): morphologic changes in IB3-1 cells, with rounding of cells and decreased growth rate

Molecule: OCC(O)CO [glycerol]
- movement of ΔF508-CFTR from the ER to the plasma membrane (ΔF508-CFTR [6]): appears to facilitate movement of ΔF508-CFTR from the ER to the plasma membrane

Molecule: arginine butyrate
- effectiveness at continuous administration (thalassemic patients; continuous administration at about 2000 mg/kg patient weight): effective
- benefit measured by rise in fetal hemoglobin levels (thalassemic patients; pulses, about 400 to 1500 mg/kg, thalassemic patients): surprisingly more beneficial
